Measured values as given in patent publication US8859543B2, “Imidazo[1,2-a]pyrazine derivatives and their use for the prevention or treatment of neurological, psychiatric and metabolic disorders and diseases” (Janssen Pharmaceutica NV, priority 2010, dated 2014).
Like-named read-outs stand apart in the source and are kept apart here.

Tests used:
[1] = biological target: T1, Rat recombinant PDE10A (rPDE10A2) (Rattus norvegicus, UniProt Q9QYJ6); assay: In vitro assay PDE10A (SPA, 3H-cAMP); format: biochemical; details: pIC50 corresponds to the -log IC50 expressed in mol/L; for IC50: read-out: PDE10A2 pIC50 (converted)
T1 construct: made in house; host or cells: Sf9 insect cells, baculovirus
T1 sequence (Q9QYJ6 1-794): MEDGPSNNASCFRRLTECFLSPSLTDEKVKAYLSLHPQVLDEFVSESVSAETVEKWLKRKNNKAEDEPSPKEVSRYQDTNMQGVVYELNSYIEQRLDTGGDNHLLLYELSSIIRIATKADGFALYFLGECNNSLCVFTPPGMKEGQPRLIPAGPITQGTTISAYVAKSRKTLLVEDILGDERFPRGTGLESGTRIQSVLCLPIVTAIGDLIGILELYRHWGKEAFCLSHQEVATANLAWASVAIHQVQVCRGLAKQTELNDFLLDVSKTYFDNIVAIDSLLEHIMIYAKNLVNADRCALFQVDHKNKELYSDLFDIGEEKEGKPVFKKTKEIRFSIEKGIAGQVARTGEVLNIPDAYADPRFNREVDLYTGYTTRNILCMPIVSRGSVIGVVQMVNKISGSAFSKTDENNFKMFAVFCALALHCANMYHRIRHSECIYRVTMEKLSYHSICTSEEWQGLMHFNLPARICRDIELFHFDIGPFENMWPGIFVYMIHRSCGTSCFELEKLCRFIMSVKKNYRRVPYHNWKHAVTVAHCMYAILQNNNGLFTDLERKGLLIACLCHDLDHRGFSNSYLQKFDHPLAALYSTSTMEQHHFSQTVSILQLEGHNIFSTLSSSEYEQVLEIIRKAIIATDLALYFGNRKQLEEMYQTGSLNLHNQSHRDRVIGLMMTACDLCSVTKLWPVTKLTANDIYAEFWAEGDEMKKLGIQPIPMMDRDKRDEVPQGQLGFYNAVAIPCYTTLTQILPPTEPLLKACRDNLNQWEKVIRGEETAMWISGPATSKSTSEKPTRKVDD
Description: Rat recombinant PDE10A (rPDE10A2) was expressed in Sf9 cells using a recombinant rPDE10A baculovirus construct. Cells were harvested after 48 h of infection and the rPDE10A protein was purified by metal chelate chromatography on Ni-sepharose 6FF. Tested compounds were dissolved and diluted in 100% DMSO to a concentration 100 fold of the final concentration in the assay. Compound dilutions (0.4 μl) were added in 384 well plates to 20 μl of incubation buffer (50 mM Tris pH 7.8, 8.3 mM MgCl2, 1.7 mM EGTA). 10 μl of rPDE10A enzyme in incubation buffer was added and the reaction was started by addition of 10 μl substrate to a final concentration of 60 nM cAMP and 0.008 μCi ^3H-cAMP. The reaction was incubated for 60 min. at RT. […] After sedimentation of the beads during 30 min. the radioactivity was measured in a Perkin Elmer Topcount scintillation counter and results were expressed as cpm. For blank values the enzyme was omitted from the reaction and replaced by incubation buffer. Control values were obtained by addition of a final concentration of 1% DMSO instead of compound. The same assay principle is applied for the measurement of the affinity of the compound for other members of the PDE family with appropriate modifications in incubation buffer, substrate concentration, incubation time and stop solution.

[2] = test system: apomorphine-induced stereotypy; assay: Apomorphine-induced stereotypy in rats (APO); format: in vivo; details: Rattus norvegicus
Description: Apomorphine-Induced Stereotypy in Rats (APO)
Apomorphine (1.0 mg/kg, i.v.)-induced stereotypy (compulsive sniffing, licking, chewing) was scored every 5 min. over the first hour after injection of apomorphine, following a 1 hour interval pre-treatment with the test compound. The score system was: (3) pronounced, (2) moderate, (1) slight, and (O) absent.

[3] = test system: PCP-induced hyperlocomotion; assay: PCP-induced hyperlocomotion in rats (PCP); format: in vivo; details: Rattus norvegicus
[4] = biological target: T2, PDE10 (Rattus norvegicus, UniProt Q9QYJ6); assay: PDE10 occupancy ([3H]-MP-10, striatum); format: in vivo; details: for receptor occupancy at 10 mg/kg / ED50: rat; for receptor occupancy at 10 mg/kg: 1 h, read-out: % occ. printed under Occ. ED50 >10; for ED50: occupancy, read-out: Occ. ED50
T2 construct: from tissue; host or cells: rat brain sections, striatum (ex vivo autoradiography after in vivo dosing)
T2 sequence (Q9QYJ6 1-794): T1 sequence (Q9QYJ6 1-794)
Description: Dose-response or single dose experiments were performed to measure PDE10 occupancy 1 hour after subcutaneous (s.c.) or oral (p.o.) administration. Male Wistar rats (200 g) were treated by s.c. or p.o. administration of various PDE10 inhibitors. The PDE10 radioligand [^3H]-MP-10 (10 μCi/animal) was injected intravenously (i.v.) 30 minutes before sacrifice. Brains were immediately removed from the skull and rapidly frozen. Twenty μm-thick brain sections were cut using a cryostat-microtome, thaw-mounted on microscope slides and loaded in a β-imager to quantify PDE10 occupancy in the striatum.

[5] = not active at 2.5 or at 10 mg/kg, not further tested, read-out: APO ED50 (not active at threshold dose)
[6] = po, * compound was not soluble and was tested orally as a suspension, read-out: APO ED50

SMILES	IC50 [1] [µM]	ED50 ([2]; read-out: APO ED50) [mg/kg]	% Occ. at 10 mg/kg ([4]; administered s.c.) [%]	ED50 [2, 5] [mg/kg]	also measured
Cc1nc2c(N3CCOCC3)nccn2c1-c1cnn(CC2CCCCO2)c1 (single isomer, unassigned) [compound 70]	0.0912	5	–	–	ED50 [3]: 3.2 mg/kg
COCCn1cc(-c2c(C)nc3c(N4CCCC4)nccn23)cn1 [compound 130]	–	–	10	> 2.5	PDE10A2 pIC50 [1]: 6.3
COCCn1cc(-c2c(C)nc3c(-c4ccncc4)nccn23)cn1 [compound 34, 3-[1-(2-Methoxy-ethyl)-1H-pyrazol-4-yl]-2-methyl-8-pyridin-4-yl-imidazo[1,2-a]pyrazine]	0.263	–	52	–	ED50 [2, 6]: 1.2 mg/kg
COCCn1cc(-c2c(C3CC3)nc3c(-c4ccncc4)nccn23)cn1 [compound 51]	0.0501	1.2	61	–	–
COCCn1cc(-c2c(C)nc3c(-c4cccnc4)nccn23)cn1 [compound 135]	–	–	–	–	receptor occupancy at 10 mg/kg ([4]; po): 29%; ED50 ([4]; po, administered p.o. (a)): > 10 mg/kg; PDE10A2 pIC50 [1]: 6.25
Cc1nc2c(N3CCOCC3)nccn2c1-c1ccnc(OC(C)C)c1 [compound 113]	0.251	–	11	> 2.5	–
Cc1nc2c(N3CCOCC3)nccn2c1-c1cnc(CC(C)C)s1 [compound 42, 3-(2-Isobutyl-thiazol-5-yl)-2-methyl-8-morpholin-4-yl-imidazo[1,2-a]pyrazine]	–	5	59	–	–
Cc1nc2c(-c3ccncc3)nccn2c1-c1cnn(CC(F)(F)F)c1 [compound 67]	0.0851	–	55	–	ED50 [2, 6]: 3.1 mg/kg
FC(F)(F)Cn1cc(-c2c(C3CC3)nc3c(N4CCOCC4)nccn23)cn1 [compound 46]	0.0251	–	41	–	ED50 [2, 6]: 5 mg/kg
COC(C)(C)Cn1cc(-c2c(C3CC3)nc3c(-c4ccncc4)nccn23)cn1 [compound 50]	0.0479	5	72	–	–
Cc1nc2c(N3CCOCC3)nccn2c1-c1cnn(CCF)c1 [compound 96]	0.141	5	–	–	–
Cc1nc2c(N3CCOCC3)nccn2c1-c1ccc(C2CC2)nc1 [compound 28, 3-(6-Cyclopropyl-pyridin-3-yl)-2-methyl-8-morpholin-4-yl-imidazo[1,2-a]pyrazine]	–	–	–	–	receptor occupancy at 10 mg/kg ([4]; sc): 31%; ED50 ([4]; sc, administered s.c.): > 10 mg/kg; ED50 [2, 6]: 1.2 mg/kg
COC(C)(C)Cn1cc(-c2c(C3CC3)nc3c(N4CCOCC4)nccn23)cn1 [compound 48]	0.0331	3.1	53	–	–
COCCn1cc(-c2cnc3c(N4CCOCC4)nccn23)cn1 [compound 141]	0.955	5	–	–	–
FC(F)(F)Cn1cc(-c2c(C3CC3)nc3c(-c4ccncc4)nccn23)cn1 [compound 45]	0.02	–	–	–	% Occ. at 10 mg/kg ([4]; administered p.o. (a)): 53^a %; ED50 [2, 6]: 3.1 mg/kg
Cc1nc2c(N3CCOCC3)nccn2c1-c1cnn(Cc2ccncc2)c1 [compound 77]	–	≤ 10	–	–	PDE10A2 pIC50 [1]: 6.99
CCC(COC)n1cc(-c2c(C)nc3c(N4CCOCC4)nccn23)cn1 (single isomer, unassigned) [compound 74]	0.0955	–	–	> 2.5	–

SMILES	IC50 [1] [µM]	ED50 ([2]; read-out: APO ED50) [mg/kg]	% Occ. at 10 mg/kg ([4]; administered s.c.) [%]	ED50 [2, 5] [mg/kg]	also measured
Cc1nc2c(N3CCOCC3)nccn2c1-c1cnc(C(C)C)[nH]1 [compound 114]	0.263	–	–	> 2.5	–
COC(C)(C)COc1ccc(-c2c(C)nc3c(N4CCOCC4)nccn23)cn1 [compound 3, 3-[6-(2-Methoxy-2-methyl-propoxy)-pyridin-3-yl]-2-methyl-8-morpholin-4-yl-imidazo[1,2-a]pyrazine]	0.457	5	–	–	–
Cc1nc2c(N3CCOCC3)nccn2c1-c1ccc(OCC2CC2)nc1 [compound 134]	0.562	≤ 10	–	–	–
Cc1nc2c(-c3ccncc3)nccn2c1-c1cnn(CCO)c1 [compound 138]	0.724	–	–	> 2.5	–
CCC(COC)n1cc(-c2c(C)nc3c(N4CCOCC4)nccn23)cn1 (stereo not drawn) [compound 111]	0.219	–	–	> 2.5	–
CCOC(C)(C)c1ccc(-c2c(C)nc3c(N4CCOCC4)nccn23)cn1 [compound 55]	0.0575	–	–	> 2.5	–
COCCc1ccc(-c2c(C)nc3c(-c4ccncc4)nccn23)cn1 [compound 8, 3-[6-(2-Methoxy-ethyl)-pyridin-3-yl]-2-methyl-8-pyridin-4-yl-imidazo[1,2-a]pyrazine]	–	1.2	–	–	ED50 ([4]; sc, administered s.c.): 2.6 mg/kg
Cc1nc2c(N3CCOCC3)nccn2c1-c1cnn(CCN2CCOCC2)c1 [compound 116]	0.275	–	–	> 2.5	–
COCCn1cc(-c2c(C(F)(F)F)nc3c(N4CCOCC4)nccn23)cn1 [compound 118]	–	–	0	> 2.5	PDE10A2 pIC50 [1]: 6.51
Cc1nc2c(N3CCOCC3)nccn2c1-c1ccnc(N2CCOCC2)c1 [compound 91]	0.135	–	–	> 2.5	–
c1cn2c(-c3ccc(N4CCNCC4)nc3)c(C3CC3)nc2c(N2CCOCC2)n1 [compound 87]	0.126	–	–	> 2.5	–
COC(C)(C)c1ccc(-c2c(C)nc3c(N4CCOCC4)nccn23)cn1 [compound 30, 3-[6-(1-Methoxy-1-methyl-ethyl)-pyridin-3-yl]-2-methyl-8-morpholin-4-yl-imidazo[1,2-a]pyrazine]	0.107	1.2	–	–	ED50 ([4]; sc, administered s.c.): 3.4 mg/kg
COCCc1ccc(-c2c(C(F)(F)F)nc3c(N4CCOCC4)nccn23)cn1 [compound 12, 3-[6-(2-Methoxy-ethyl)-pyridin-3-yl]-8-morpholin-4-yl-2-trifluoromethyl-imidazo[1,2-a]pyrazine]	–	≤ 2.5	–	–	receptor occupancy at 10 mg/kg ([4]; sc): 22%; ED50 ([4]; sc, administered s.c.): > 10 mg/kg
COCCn1cc(-c2c(C#N)nc3c(N4CCOCC4)nccn23)cn1 [compound 40, 3-[1-(2-Methoxy-ethyl)-1H-pyrazol-4-yl]-8-morpholin-4-yl-imidazo[1,2-a]pyrazine-2-carbonitrile]	–	5	–	–	PDE10A2 pIC50 [1]: 7.07
COCCc1ccc(-c2c(OC)nc3c(N4CCOCC4)nccn23)cn1 [compound 15, 2-Methoxy-3-[6-(2-methoxy-ethyl)-pyridin-3-yl]-8-morpholin-4-yl-imidazo[1,2-a]pyrazine]	–	1.2	–	–	ED50 ([4]; sc, administered s.c.): 1.5 mg/kg
Cc1nc2c(N3CCOCC3)nccn2c1-c1ccc(N2CCOCC2)nc1 [compound 4, 2-Methyl-8-morpholin-4-yl-3-(6-morpholin-4-yl-pyridin-3-yl)-imidazo[1,2-a]pyrazine]	0.141	3.1	28	–	–
Cc1nc2c(N3CCOCC3)nccn2c1-c1cnn(CC2CCCCO2)c1 (single isomer, unassigned) [compound 58]	0.0676	–	–	> 2.5	–
